According to EP4775577A1, “RAS INHIBITOR” (Tyligand Bioscience (Shanghai) Limited, priority 2023, dated 2025):

Legend:
[1] = tested on: KRAS G12V mutant NCI-H727 cells; assay: Proliferation inhibition of NCI-H727 cells, 3D CellTiter-Glo assay (Method B); format: cell-based, human; conditions: Homo sapiens, NCI-H727, 120 h, Method B; 3D culture with 0.65% methylcellulose, 5 days, CTG; read-out: NCI-H727 IC50/nM
Outline: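 Cells grown in 3D medium (RPMI-1640, 10% FBS, 0.65% methylcellulose) overnight, then treated 5 days at 37 °C, 5% CO2 with 9 threefold dilutions from 10 µM top working concentration, duplicate wells. CellTiter-Glo luminescence read; IC50 (nM) fitted by dose-response-inhibition equation.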

[2] = tested on: KRAS G12D mutant AGS cells; assay: Proliferation inhibition of AGS cells, CellTiter-Glo assay; format: cell-based, human; conditions: Homo sapiens, AGS, 72 h, 3 days, CTG; read-out: AGS IC50/nM
Outline: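 AGS cells at 1500 cells/well in F12K + 10% FBS were exposed for 3 days at 37°C to nine 3-fold dilutions from 10 µM top concentration, in duplicate. Viability read by CellTiter-Glo luminescence; IC50 (nM) from dose-response-inhibition fitting.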

SMILES	IC50 [1] [nM]	IC50 [2] [nM]
CN1CC/C(=C\F)[C@](C)(COc2nc(N3CCCn4nc(C(=O)N(C)C)cc4C3)c3cc(/C=C/F)c(-c4cccc5sc(N)c(C#N)c45)c(F)c3n2)C1 [Example 111]	54.7	25.6
CN1CC/C(=C\F)[C@](C)(COc2nc(N3CCCn4nc(C(=O)N(C)C)cc4C3)c3cc(/C=C\F)c(-c4cccc5sc(N)c(C#N)c45)c(F)c3n2)C1 [Example 112]	20.2	9.9
CN1CC/C(=C\F)[C@](C)(COc2nc(N3CCCN4C(=O)OCC4C3)c3cc(C(F)(F)F)c(-c4cccc5sc(N)c(C#N)c45)c(F)c3n2)C1 (stereo partly shown) [Example 113]	168	584
CNC(=O)c1cc2n(n1)CCCN(c1nc(OC[C@]3(C)CN(C)CC/C3=C\F)nc3c(F)c(-c4cccc5sc(N)c(C#N)c45)c(C(F)(F)F)cc13)C2 [Example 118]	35.5	12.8
CN1CC/C(=C\F)[C@](C)(COc2nc(N3CCCn4nc(C(=O)N(C)C)c(N)c4C3)c3cc(C(F)(F)F)c(-c4cccc5sc(N)c(C#N)c45)c(F)c3n2)C1 [Example 120]	29.8	10.3
CN1CC/C(=C\F)[C@](C)(COc2nc(N3CCCn4nc(N)c(C(=O)N(C)C)c4C3)c3cc(C(F)(F)F)c(-c4cccc5sc(N)c(C#N)c45)c(F)c3n2)C1 [Example 121]	439	179
CCc1cc2c(N3Cc4cc(C(=O)N(C)C)nn4CC[C@@H]3C)nc(OC[C@]3(C)CN(C)CC/C3=C\F)nc2c(F)c1-c1cccc2sc(N)c(C#N)c12 [Example 165A]	3.6	3.2
CCc1cc2c(N3Cc4cc(C(=O)N(C)C)nn4CC[C@@H]3C)nc(OC[C@]3(C)CN(C)CC/C3=C\F)nc2c(F)c1-c1ccc(F)c2sc(N)c(C#N)c12 [Example 166A]	7.4	4.9
CN1CC/C(=C\F)[C@](C)(COc2nc(N3CCCn4nc(C(=O)N(C)C)c(Cl)c4C3)c3cc(C4CC4)c(-c4ncc(F)c5sc(N)c(C#N)c45)c(F)c3n2)C1 [Example 167A]	96.7	21.7
C[C@H]1CCn2nc(C(=O)N(C)C)cc2CN1c1nc(OC[C@]2(C)CN(C)CC/C2=C\F)nc2c(F)c(-c3ncc(F)c4sc(N)c(C#N)c34)c(C3CC3)cc12 [Example 168A]	85	42.1
CCc1cc2c(N3CCCn4nc(C(=O)N(C)C)c(Cl)c4C3)nc(OC[C@]3(C)CN(C)CC/C3=C\F)nc2c(F)c1-c1ncc(F)c2sc(N)c(C#N)c12 [Example 169A]	59.9	14.6
CCc1cc2c(N3Cc4cc(C(=O)N(C)C)nn4CC[C@@H]3C)nc(OC[C@]3(C)CN(C)CC/C3=C\F)nc2c(F)c1-c1ncc(F)c2sc(N)c(C#N)c12 [Example 170A]	81.9	33.2
Cc1c(-c2ncc(F)c3sc(N)c(C#N)c23)c(Cl)cc2c(N3Cc4cc(C(=O)N(C)C)nn4CC[C@@H]3C)nc(OC[C@]3(C)CN(C)CC/C3=C\F)nc12 [Example 171A]	4.1	4.7
CCN1CC/C(=C\F)[C@](C)(COc2nc(N3CCCn4nc(C(=O)N(C)C)c(Cl)c4C3)c3cc(Cl)c(-c4c(F)ccc5sc(N)c(C#N)c45)c(C)c3n2)C1 [Example 180]	11.3	10.6
[2H]C([2H])([2H])N1CCC(=CF)C(C)(COc2nc(N3CCCn4nc(C(=O)N(C)C)c(Cl)c4C3)c3cc(CC)c(-c4c(F)ccc5sc(N)c(C#N)c45)c(C)c3n2)C1 (stereo not shown) [Example 186]	5.4	4.4
[2H]C([2H])([2H])N1CCC(=CF)C(C)(COc2nc(N3Cc4cc(C(=O)N(C)C)nn4CCC3C)c3cc(CC)c(-c4c(F)ccc5sc(N)c(C#N)c45)c(C)c3n2)C1 (stereo not shown) [Example 188]	3.1	2.9

SMILES	IC50 [1] [nM]	IC50 [2] [nM]
CCc1cc2c(N3Cc4cc(C(=O)N(C)C)nn4CCC3C)nc(OCC3(C)CN(CC)CCC3=CF)nc2c(C)c1-c1c(F)ccc2sc(N)c(C#N)c12 (stereo not shown) [Example 189]	2.6	2
[2H]C([2H])([2H])N1CCC(=CF)C(C)(COc2nc(N3CCCn4nc(C(=O)N(C)C)c(Cl)c4C3)c3cc(CC)c(-c4c(F)ccc5sc(N)c(C#N)c45)c(Cl)c3n2)C1 (stereo not shown) [Example 190]	3.2	< 1.5
[2H]C([2H])([2H])N1CCC(=CF)C(C)(COc2nc(N3Cc4cc(C(=O)N(C)C)nn4CCC3C)c3cc(CC)c(-c4c(F)ccc5sc(N)c(C#N)c45)c(Cl)c3n2)C1 (stereo not shown) [Example 192]	2	< 1.5
CCc1cc2c(N3Cc4cc(C(=O)N(C)C)nn4CCC3C)nc(OCC3(C)CN(CC)CCC3=CF)nc2c(Cl)c1-c1c(F)ccc2sc(N)c(C#N)c12 (stereo not shown) [Example 193]	2.1	< 1.5
CCc1cc2c(N3Cc4c(Cl)c(C(=O)N(C)C)nn4CCC3C)nc(OCC3(C)CN(C)CCC3=CF)nc2c(F)c1-c1c(F)ccc2sc(N)c(C#N)c12 (stereo not shown) [Example 194]	< 1.5	< 1.5
[2H]C([2H])([2H])N1CCC(=CF)C(C)(COc2nc(N3CCCn4nc(C(=O)N(C)C)c(Cl)c4C3)c3cc(Cl)c(-c4c(F)ccc5sc(N)c(C#N)c45)c(Cl)c3n2)C1 (stereo not shown) [Example 195]	2.5	2.5
[2H]C([2H])([2H])N1CCC(=CF)C(C)(COc2nc(N3Cc4cc(C(=O)N(C)C)nn4CCC3C)c3cc(Cl)c(-c4c(F)ccc5sc(N)c(C#N)c45)c(Cl)c3n2)C1 (stereo not shown) [Example 197]	2.1	3
CCN1CCC(=CF)C(C)(COc2nc(N3Cc4cc(C(=O)N(C)C)nn4CCC3C)c3cc(Cl)c(-c4c(C#N)c(N)cc(C)c4C(F)(F)F)c(C)c3n2)C1 (stereo not shown) [Example 221]	71.8	103
CCC1CCn2nc(C(=O)N(C)C)cc2CN1c1nc(OCC2(C)CN(CC)CCC2=CF)nc2c(F)c(-c3c(F)ccc4sc(N)c(C#N)c34)c(Cl)cc12 (stereo not shown) [Example 250A]	< 1.5	< 1.5
CCN1CC/C(=C\F)[C@](C)(COc2nc(N3CCCn4nc(C(=O)N(C)C)c(Cl)c4C3)c3cc(C(F)(F)F)c(-c4ncc(F)c5sc(N)c(C#N)c45)c(F)c3n2)C1 [Example 253]	8.7	2.5
CCN1CCC(=CF)C(C)(COc2nc(N3Cc4cc(C(=O)N5CCC5)nn4CCC3C)c3cc(Cl)c(-c4c(F)ccc5sc(N)c(C#N)c45)c(F)c3n2)C1 (stereo not shown) [Example 254A]	< 1.5	< 1.5
CCN1CCC(=CF)C(C)(COc2nc(N3Cc4c(Cl)nnn4CCC3C)c3cc(Cl)c(-c4c(F)ccc5sc(N)c(C#N)c45)c(F)c3n2)C1 (stereo not shown) [Example 259A]	1.7	3.1
CCN1CCC(=CF)C(C)(COc2nc(N3Cc4cc(C(=O)N5CCN(C)CC5)nn4CCC3C)c3cc(Cl)c(-c4c(F)ccc5sc(N)c(C#N)c45)c(F)c3n2)C1 (stereo not shown) [Example 261A]	1.9	< 1.5
CCN1CCC(=CF)C(C)(COc2nc(N3Cc4cc(C(=O)N5CCCC5)nn4CCC3C)c3cc(Cl)c(-c4c(F)ccc5sc(N)c(C#N)c45)c(F)c3n2)C1 (stereo not shown) [Example 262A]	2.4	2.9
[2H]C([2H])([2H])N1CCC(=CF)C(C)(COc2nc(N3Cc4cc(C(=O)N5CCOCC5)nn4CCC3C)c3cc(CC)c(-c4c(F)ccc5sc(N)c(C#N)c45)c(F)c3n2)C1 (stereo not shown) [Example 263A]	2.5	2.5
CCN1CCC(=CF)C(C)(COc2nc(N3Cc4cc(C(=O)N(C)CCF)nn4CCC3C)c3cc(Cl)c(-c4c(F)ccc5sc(N)c(C#N)c45)c(F)c3n2)C1 (stereo not shown) [Example 264A]	2.8	2.3
